# From patent US9212204B2, “Treatment of rett syndrome using glycyl-L-2-methylprolyl-L-glutamic acid” (priority 2011, dated 2015)
# Experiments:
# [1] = Degradation of GPE in vivo and in vitro
# MeCP2 knock-out mice = details: U.S. Publication No. 2009/0099077; cited from earlier work
# [2] = tested on: cortical neurons injured with okadaic acid; experiment: Okadaic acid injury of cortical cultures, MTT survival; format: cell-based, rat; details: 10 μM, 24 hours incubation, MTT-assay
# Description: One cortical hemisphere from a postnatal day 1 rat was used and collected into 4 ml of DMEM. Trituration was performed using a 5 ml glass pipette and an 18-gauge needle. The cell suspension was sieved through a 100 μm cell strainer and washed in 50 ml DMEM (centrifugation for 5 min at 250 g). The sediment was resuspended in 20 ml DMEM+10% fetal calf serum. The suspension was added into two […] flasks (10 ml per flask) and cultivated at 37° C. in the presence of 10% CO2 followed by a change of the medium twice a week. When cells reached confluence, they were washed three times with PBS, adjusted to Neurobasal/B27 and incubated for another 3 days. This supernatant was frozen for transient storage at −80° C. […]
# The cells were triturated once with a glass Pasteur pipette in 1 ml of Neurobasal/B27 medium and subsequently twice by using a 1 ml insulin syringe with a 22 gauge needle. […] Cells were counted and adjusted to 50,000 cells per 60 μl. […]
# To cause toxic injury to neurons, we exposed neurons to 1:100 parts of okadaic acid at concentrations of 30 nM or 100 nM and 0.5 mM 3-nitropropionic acid (for cerebellar microexplants only). […] The survival rate was determined by a colorimetric end-point MTT-assay at 595 nm in a multi-well plate reader. For the cerebellar microexplants four windows (field of 0.65 mm^2) with highest cell density were chosen and cells displaying neurite outgrowth were counted.
# [3] = Pharmacokinetics after intravenous bolus injection; format: in vivo, rat; details: 30 mg/kg single i.v. bolus; rat
# Description: Adult male Wistar rats weighing between 180 and 240 g were used to determine the pharmacokinetics of GPE and […]. To facilitate intravenous bolus injections and blood sampling, all rats were surgically implanted with an indwelling jugular venous cannula under halothane anesthesia three days before the experiment. Groups of six rats were given a single intravenous bolus injection of either 30 mg/kg GPE or 10 mg/kg […] dissolved in 0.1M succinate buffer (pH 6.5). […] The samples were centrifuged at 3000 g for 15 min at 4° C. and the plasma removed and stored at -80° C. until extraction and assay by either radioimmunoassay (“RIA”) or reverse phase HPLC. The RIA and HPLC methods used were conventional. […] The k and half-life (t1/2) were calculated from the slope of the linear regression line in the elimination phase of the semi-logarithmic plot of plasma concentration versus time as: Log. C=-kt/2.3+log C0. Results were expressed as mean±standard error.
# wild type young mice = details: Tropea et al., 2006; cited from earlier work
structure (smiles),measurement,setting,value
"NCC(=O)N1CCC[C@H]1C(=O)N[C@@H](CCC(=O)O)C(=O)O [GPE, glycyl-L-prolyl-L-glutamic acid]",degradation,[1],rapidly degraded
same,effect on life span,MeCP2 knock-out mice,prolong life
same,effect on neuronal function,MeCP2 knock-out mice,increase neuronal function
same,neuroprotection,[2],64%
same,first order rate constant,[3],0.15 ± 0.014 min⁻¹
same,OD plasticity,wild type young mice,reduce
